Data reported in paper PMC9851200, “Multiparameter phenotypic screening for endogenous TFEB and TFE3 translocation identifies novel chemical series modulating lysosome function” (Autophagy, 2022).
Like-named read-outs stand apart in the source and are kept apart here.

Experiments:
SH-SY5Y cells [1] = tested on: SH-SY5Y cells; note: reference of the scale not given here
SH-SY5Y cells [2] = assay: Nuclear count from microscopy images (cellular growth and toxicity); details: PKIS2 primary screening; note: reference of the scale not given here
endogenous TFE3 = assay: TFE3 nuclear translocation, immunocytochemistry high-content imaging; assay type: cell-based; details: PKIS2 primary screening
endogenous TFEB = assay: TFEB nuclear translocation, immunocytochemistry high-content imaging; assay type: cell-based; details: PKIS2 primary screening
SH-SY5Y cells [3] = assay: AK (adenylate kinase) release ToxiLight cytotoxicity assay; details: PKIS2 primary screening; note: reference of the scale not given here
[4] = PKIS2 primary screening, DQ Red BSA intensity
[5] = PKIS2 primary screening, DQ Red BSA spot count

Row | Structure (SMILES) | DQ Intensity (SH-SY5Y cells [1]; PKIS2 primary screening) | DQ Spot (SH-SY5Y cells [1]; PKIS2 primary screening) | Nuclear Count (SH-SY5Y cells [2]) | TFE3 % (endogenous TFE3) | TFEB % (endogenous TFEB) | AK (SH-SY5Y cells [3]) | DQ Intensity (SH-SY5Y cells [1]; [4]) | DQ Spot (SH-SY5Y cells [1]; [5]) | DQ Intensity (SH-SY5Y cells [1]) | DQ Spot (SH-SY5Y cells [1])
1 | COc1cccc(NC(=O)Nc2ccc(C)c(-c3ccc(C(=O)Nc4ccncc4)cc3)c2)c1 [UNC10225200A] | 99.65 | 116.14 | 79.81 | 12.37% | 7.95% | 112.40 |  |  |  | 
2 | Nc1nc(-c2ccccn2)c(-c2ccnc3ccccc23)s1 [UNC10225201A] |  |  | 144.30 | 10.28% | 4.25% | 81.66 | 97.54 | 92.32 |  | 
3 | Nc1ncnc2c1ncn2-c1ccc(Cl)cc1 [UNC10225203A] | 65.28 | 88.83 | 80.96 | 14.23% | 5.10% | 145.27 |  |  |  | 
4 | CCn1c(-c2ccncc2)nc2cnccc21 [UNC10225204A] | 98.92 | 103.23 | 104.87 | 12.32% | 11.18% | 74.70 |  |  |  | 
5 | CCc1nc(-c2cccc(N(C)S(=O)(=O)c3ccccc3)c2)c(-c2ccnc(Nc3ccc(N4CCN(C(C)=O)CC4)nc3)n2)s1 [UNC10225205A] | 90.69 | 101.49 | 89.51 | 16.25% | 7.99% | 111.97 |  |  |  | 
6 | CCn1c(-c2nonc2N)nc2cncc(CNC3CCNCC3)c21.Cl [UNC10225211A] | 95.76 | 101.16 | 84.35 | 12.65% | 4.17% | 88.65 |  |  |  | 
7 | CN1C(=O)C(Nc2cc(Cl)c(O)c(Cl)c2)=C(c2ccc(Cl)cc2)C1=O [UNC10225212A] |  |  | 107.72 | 7.81% | 3.71% | 103.32 | 96.22 | 97.02 |  | 
8 | COc1nccc(-c2c(-c3ccc(F)cc3)ncn2CCCN2CCOCC2)n1 [UNC10225213A] | 119.56 | 105.70 | 107.77 | 16.14% | 5.79% | 78.43 |  |  |  | 
9 | Cc1occc1-c1nc(N)c(OC[C@@H](N)Cc2c[nH]c3ccccc23)cc1-c1cc2c(C)n[nH]c2cn1 [UNC10225217A] | 96.09 | 101.21 | 82.67 | 15.99% | 6.02% | 91.49 |  |  |  | 
10 | Fc1cc(Cl)ccc1Nc1ccnc2cc(-c3ccc(CN4CCCCC4)o3)ccc12 [UNC10225220A] |  |  | 76.92 | 18.00% | 3.77% | 82.41 | 113.72 | 129.26 |  | 
11 | Cc1ccc2c(-c3ccnc(Nc4ccc(C(F)(F)F)cc4)n3)cnn2n1 [UNC10225224A] | 85.12 | 93.95 | 89.44 | 15.88% | 10.89% | 79.85 |  |  |  | 
12 | Cc1c(Cn2c(C)c(C)n3c(=O)cc(N4CCOCC4)nc23)cccc1C(F)(F)F [UNC10225225A] | 84.00 | 96.71 | 111.32 | 8.46% | 3.43% | 106.72 |  |  |  | 
13 | CN(C)CCOc1ccc(-c2cc(-c3c[nH]nc3-c3ccccn3)ccn2)cc1 [UNC10225226A] |  |  | 49.06 | 7.10% | 11.71% | 93.65 | 136.49 | 114.20 |  | 
14 | Cc1ccc(C)c(NC(=O)Nc2ccc(C)c(-c3ccc(C(=O)Nc4ccncc4)cc3)c2)c1 [UNC10225228A] | 84.26 | 79.30 | 105.64 | 10.54% | 7.17% | 74.48 |  |  |  | 
15 | COCCNC(=O)c1ccc(-c2cc(C(=O)NC3CC3)cc(F)c2C)cc1 [UNC10225229A] | 100.76 | 101.89 | 111.58 | 7.62% | 15.26% | 73.51 |  |  |  | 
16 | O=C(c1ccc(-c2cc(-c3c[nH]nc3-c3ccccn3)ccn2)cc1)N1CCCC1 [UNC10225230A] |  |  | 86.33 | 11.53% | 9.58% | 75.56 | 81.19 | 99.92 |  | 
17 | O=c1cc(N2CCOCC2)nc2n(Cc3ccccc3F)ccn12 [UNC10225231A] | 110.36 | 111.39 | 97.25 | 8.12% | 4.37% | 121.63 |  |  |  | 

Row | Structure (SMILES) | DQ Intensity (SH-SY5Y cells [1]; PKIS2 primary screening) | DQ Spot (SH-SY5Y cells [1]; PKIS2 primary screening) | Nuclear Count (SH-SY5Y cells [2]) | TFE3 % (endogenous TFE3) | TFEB % (endogenous TFEB) | AK (SH-SY5Y cells [3]) | DQ Intensity (SH-SY5Y cells [1]; [4]) | DQ Spot (SH-SY5Y cells [1]; [5]) | DQ Intensity (SH-SY5Y cells [1]) | DQ Spot (SH-SY5Y cells [1])
18 | O=C(Nc1cccc(-c2nn3ncccc3c2-c2ccnc(Nc3ccccc3)n2)c1)c1c(F)cccc1F [UNC10225232A] | 89.13 | 101.26 | 127.09 | 11.89% | 3.87% | 143.10 |  |  |  | 
19 | COc1cc2nccc(Nc3ccc(OCc4ccc(NC(C)=O)cc4)cc3)c2cc1OC.Cl [UNC10225233A] |  |  | 125.55 | 18.79% | 5.84% | 100.23 | 120.40 | 99.45 |  | 
20 | C[C@@H](Oc1cc(-n2cnc3cc(-c4ccnc(NCCS(C)(=O)=O)c4)ccc32)sc1C(N)=O)c1ccccc1Cl [UNC10225234A] | 121.28 | 93.41 | 68.66 | 12.54% | 11.46% | 97.61 |  |  |  | 
21 | FC(F)(F)c1ccc(-c2cc(-c3c[nH]nc3-c3ccccn3)ccn2)cc1 [UNC10225241A] |  |  | 106.44 | 6.11% | 3.57% | 109.99 | 101.49 | 108.48 |  | 
22 | Cc1ccccc1-c1cc(-c2c[nH]nc2-c2ccccn2)ccn1 [UNC10225243A] |  |  | 90.96 | 14.74% | 4.36% | 94.72 | 62.92 | 82.05 |  | 
23 | CC(=O)c1c(-c2ccncc2)[nH]c(-c2ccncc2)c1C [UNC10225248A] | 75.03 | 97.66 | 71.54 | 12.82% | 5.93% | 107.07 |  |  |  | 
24 | Fc1ccc(-c2nn3c(OCC(F)(F)F)cccc3c2-c2ccncc2)cc1 [UNC10225249A] |  |  | 84.48 | 7.21% | 6.54% | 70.84 | 115.73 | 116.42 |  | 
25 | COc1cc2c(Nc3ccc(NC(=O)c4ccccc4)cc3)ncnc2cc1OCCCN1CCOCC1 [UNC10225250A] |  |  | 140.08 | 6.21% | 4.27% | 83.23 |  |  | 81.48 | 82.98
26 | Cl.c1ccc(-c2n[nH]cc2-c2ccnc(-c3ccc(CN4CCOCC4)cc3)c2)nc1 [UNC10225251A] |  |  | 93.63 | 7.21% | 7.11% | 76.02 | 80.00 | 92.60 |  | 
27 | Cc1ccccc1CC(=O)N1CCc2cc(-c3cn(C)c4ncnc(N)c34)ccc21 [UNC10225254A] | 93.20 | 89.69 | 109.34 | 19.37% | 10.80% | 77.66 |  |  |  | 
28 | CN(C)CCN(C)C(=O)c1cc(-c2ccncc2)c(-c2ccc(Cl)c(O)c2)o1.Cl.Cl [UNC10225256A] | 171.47 | 68.22 | 130.04 | 22.07% | 10.97% | 88.55 |  |  |  | 
29 | O=C(O)C(F)(F)F.O=c1[nH]ccc2nc(N[C@@H]3CCNC3)nc(Nc3cc(Cl)cc(Cl)c3)c12 [UNC10225257A] | 65.99 | 83.26 | 111.57 | 8.28% | 7.01% | 117.20 |  |  |  | 
30 | CC(C)N1CCC(n2cnc(-c3ccc(F)cc3)c2-c2ccnc(N)n2)CC1 [UNC10225258A] | 110.79 | 99.41 | 83.47 | 12.02% | 5.04% | 107.69 |  |  |  | 
31 | NC(=O)c1sc(-n2cnc3ccccc32)cc1OCc1ccccc1F [UNC10225260A] | 138.58 | 126.89 | 92.38 | 15.10% | 10.02% | 77.77 |  |  |  | 
32 | COc1cc2ncnc(Nc3ccc(OCc4ccccc4Br)c(Cl)c3)c2cc1OC.Cl [UNC10225261A] |  |  | 123.73 | 8.49% | 4.00% | 120.37 | 96.30 | 117.72 |  | 
33 | C[C@@H](Oc1cc(-n2cnc3cc(-c4ccncc4)ccc32)sc1C(N)=O)c1ccccc1Cl [UNC10225262A] | 208.10 | 109.28 | 39.15 | 14.34% | 9.74% | 125.08 |  |  |  | 
34 | Cc1ccc(NC(=O)c2cccc(C#N)c2)cc1-c1ccc(C(=O)Nc2ccncc2)cc1 [UNC10225263A] | 106.14 | 106.02 | 75.93 | 18.65% | 13.51% | 76.98 |  |  |  | 
